Results published in patent US20140171357A1, “VANCOMYCIN DERIVATIVES” (Seachald Pharmaceuticals, Inc., priority 2011, published 2014).
Converted amounts (≈) assume the structure as drawn.

Key:
S. pneumoniae (22) = assay: MIC broth microdilution, S. pneumoniae; conditions: for MIC 50% / MIC 90%: S. pneumoniae (22), MHB + lysed horse blood
[1] = tested on: VanA vancomycin-resistant E. faecium (10); assay: MIC broth microdilution, VanA E. faecium; conditions: for MIC 50% / MIC 90%: E. faecium, VanA (10)
[2] = tested on: vancomycin-resistant S. aureus (VRSA, 6); assay: MIC broth microdilution, VRSA
[3] = tested on: Staphylococcus aureus (65 strains); assay: MIC broth microdilution, S. aureus all isolates; conditions: for MIC 50% / MIC 90%: S. aureus (65), all resistance subsets
[4] = tested on: vancomycin-susceptible E. faecium (21); assay: MIC broth microdilution, vancomycin-susceptible E. faecium; conditions: for MIC 50% / MIC 90%: E. faecium, vancomycin-susceptible (21)
[5] = tested on: methicillin-susceptible S. aureus (MSSA, 22); assay: MIC broth microdilution, MSSA; conditions: for MIC 50% / MIC 90%: MSSA (22)
S. aureus ATCC 25923 = assay: Neutropenic murine thigh infection model; conditions: for AUCc-t (AUC difference between control and treated animals): 24 h time kill
[6] = tested on: vancomycin-intermediate S. aureus (VISA, 5); assay: MIC broth microdilution, VISA
[7] = tested on: vancomycin-susceptible E. faecalis (23); assay: MIC broth microdilution, vancomycin-susceptible E. faecalis; conditions: for MIC 50% / MIC 90%: E. faecalis, vancomycin-susceptible (23)
[8] = tested on: VanB vancomycin-resistant E. faecium (10); assay: MIC broth microdilution, VanB E. faecium; conditions: for MIC 50% / MIC 90%: E. faecium, VanB (10)
[9] = tested on: Staphylococcus epidermidis (43 strains); assay: MIC broth microdilution, S. epidermidis; conditions: for MIC 50% / MIC 90%: S. epidermidis (43)
[10] = tested on: VanA vancomycin-resistant E. faecalis (11); assay: MIC broth microdilution, VanA E. faecalis; conditions: for MIC 50% / MIC 90%: E. faecalis, VanA (11)
[11] = tested on: VanB vancomycin-resistant E. faecalis (12); assay: MIC broth microdilution, VanB E. faecalis; conditions: for MIC 50% / MIC 90%: E. faecalis, VanB (12)
VanC enterococci (22) = assay: MIC broth microdilution, vanC-carrying enterococci; conditions: for MIC 50% / MIC 90%: VanC enterococci (22)
[12] = tested on: heterogeneous VISA (hVISA, 10); assay: MIC broth microdilution, hVISA
[13] = tested on: β-hemolytic streptococci (23); assay: MIC broth microdilution, β-hemolytic streptococci; conditions: for MIC 50% / MIC 90%: β-hemolytic streptococci (23), MHB + lysed horse blood
[14] = tested on: methicillin-resistant S. aureus (MRSA, 22); assay: MIC broth microdilution, MRSA
[15] = 1 mg/kg single intraperitoneal dose
[16] = 4 mg/kg single intraperitoneal dose
[17] = 16 mg/kg single intraperitoneal dose

Compound: CCCCCCCCCCNCCNC1(C)CC(OC2C(Oc3c4cc5cc3Oc3ccc(cc3Cl)C(O)C3NC(=O)C(NC(=O)C5NC(=O)C(CC(N)=O)NC(=O)C(NC(=O)C(CC(C)C)NC)C(O)c5ccc(c(Cl)c5)O4)c4ccc(O)c(c4)-c4c(cc(O)c(CNCCOCCOCC[N+](C)(C)C)c4O)C(C(=O)O)NC3=O)OC(CO)C(O)C2O)OC(C)C1O (centres unmarked) [Compound 1]
- fold more potent than linezolid (S. pneumoniae (22); S. pneumoniae): 32 fold
- MIC 50% (S. pneumoniae (22)): 0.015 µg/mL
- MIC 90% (S. pneumoniae (22)): 0.03 µg/mL
- MIC 50% [1]: 4 µg/mL
- MIC 90% [1]: 8 µg/mL
- MIC 50% [2]: 2 µg/mL
- MIC 50% [3]: 0.06 µg/mL
- MIC 90% [3]: 0.12 µg/mL
- MIC 50% [4]: 0.03 µg/mL
- MIC 90% [4]: 0.03 µg/mL
- MIC 50% [5]: 0.06 µg/mL
- MIC 90% [5]: 0.06 µg/mL
- Max Kill (maximum decrease from initial infection level) (S. aureus ATCC 25923; [15]): 0.15 Log10 CFU/thigh
- AUCc-t (AUC difference between control and treated animals) (S. aureus ATCC 25923; [15]): 28 (Log10 CFU/thigh)/hr
- Max Kill (maximum decrease from initial infection level) (S. aureus ATCC 25923; [16]): −1.14 Log10 CFU/thigh
- AUCc-t (AUC difference between control and treated animals) (S. aureus ATCC 25923; [16]): 32.7 (Log10 CFU/thigh)/hr
- Max Kill (maximum decrease from initial infection level) (S. aureus ATCC 25923; [17]): −1.07 Log10 CFU/thigh
- AUCc-t (AUC difference between control and treated animals) (S. aureus ATCC 25923; [17]): 60.4 (Log10 CFU/thigh)/hr
- in vivo efficacy against S. aureus (in words) (S. aureus ATCC 25923; neutropenic soft tissue infection model): bactericidal characteristics and prolonged in vivo activity
- MIC 50% [6]: 0.12 µg/mL
- MIC 50% [7]: 0.06 µg/mL
- MIC 90% [7]: 0.12 µg/mL
- MIC 50% [8]: 0.015 µg/mL
- MIC 90% [8]: 0.03 µg/mL
- MIC 50% [9]: 0.03 µg/mL
- MIC 90% [9]: 0.06 µg/mL
- MIC 50% [10]: 8 µg/mL
- MIC 90% [10]: 8 µg/mL
- MIC 50% [11]: 0.12 µg/mL
- MIC 90% [11]: 0.12 µg/mL
- MIC 50% (VanC enterococci (22)): 0.06 µg/mL
- MIC 90% (VanC enterococci (22)): 0.25 µg/mL
- MIC 50% [12]: 0.06 µg/mL
- MIC 90% [12]: 0.06 µg/mL
- fold more potent than teicoplanin and daptomycin ([13]; β-hemolytic streptococci): two- to four
- fold more potent than vancomycin ([13]; β-hemolytic streptococci): four- to eight
- MIC 50% [13]: 0.03 µg/mL
- MIC 90% [13]: 0.06 µg/mL

Compound: CN[C@H](CC(C)C)C(=O)N[C@H]1C(=O)N[C@@H](CC(N)=O)C(=O)N[C@H]2C(=O)N[C@H]3C(=O)N[C@H](C(=O)N[C@H](C(=O)O)c4cc(O)cc(O)c4-c4cc3ccc4O)[C@H](O)c3ccc(c(Cl)c3)Oc3cc2cc(c3O[C@@H]2O[C@H](CO)[C@@H](O)[C@H](O)[C@H]2O[C@H]2C[C@](C)(N)[C@H](O)[C@H](C)O2)Oc2ccc(cc2Cl)[C@H]1O [Vancomycin]
- MIC50 ([1]; Enterococcus faecium): > 64 µg/mL
- MIC90 ([1]; Enterococcus faecium): > 64 µg/mL
- MIC50 ([3]; Staphylococcus aureus): 1 µg/mL (≈ 0.69 µM)
- MIC90 ([3]; Staphylococcus aureus): 4 µg/mL (≈ 2.76 µM)
- MIC50 ([4]; Enterococcus faecium): 0.5 µg/mL (≈ 0.345 µM)
- MIC90 ([4]; Enterococcus faecium): 1 µg/mL (≈ 0.69 µM)
- MIC50 ([5]; Staphylococcus aureus, MSSA): 0.5 µg/mL (≈ 0.345 µM)
- MIC90 ([5]; Staphylococcus aureus, MSSA): 1 µg/mL (≈ 0.69 µM)
- MIC50 ([7]; Enterococcus faecalis): 1 µg/mL (≈ 0.69 µM)
- MIC90 ([7]; Enterococcus faecalis): 2 µg/mL (≈ 1.38 µM)
- MIC50 ([8]; Enterococcus faecium): 64 µg/mL (≈ 44.2 µM)
- MIC90 ([8]; Enterococcus faecium): > 64 µg/mL
- MIC50 ([9]; Staphylococcus epidermidis): 1 µg/mL (≈ 0.69 µM)
- MIC90 ([9]; Staphylococcus epidermidis): 2 µg/mL (≈ 1.38 µM)
- MIC50 ([10]; Enterococcus faecalis): > 64 µg/mL
- MIC90 ([10]; Enterococcus faecalis): > 64 µg/mL
- MIC50 ([11]; Enterococcus faecalis): > 64 µg/mL
- MIC90 ([11]; Enterococcus faecalis): > 64 µg/mL
- MIC50 (VanC enterococci (22)): 4 µg/mL (≈ 2.76 µM)
- MIC90 (VanC enterococci (22)): 4 µg/mL (≈ 2.76 µM)
- MIC50 ([14]; Staphylococcus aureus, MRSA): 0.5 µg/mL (≈ 0.345 µM)
- MIC90 ([14]; Staphylococcus aureus, MRSA): 1 µg/mL (≈ 0.69 µM)

Compound: Teicoplanin [reference compound]
- MIC 50% (S. pneumoniae (22)): 0.12 µg/mL
- MIC 90% (S. pneumoniae (22)): 0.12 µg/mL
- MIC 50% [1]: 64 µg/mL
- MIC 90% [1]: >64 µg/mL
- MIC 50% [3]: 0.5 µg/mL
- MIC 90% [3]: 8 µg/mL
- MIC 50% [4]: 1 µg/mL
- MIC 90% [4]: 1 µg/mL
- MIC 50% [5]: 0.5 µg/mL
- MIC 90% [5]: 1 µg/mL
- MIC 50% [7]: 0.5 µg/mL
- MIC 90% [7]: 0.5 µg/mL
- MIC 50% [8]: 1 µg/mL
- MIC 90% [8]: 1 µg/mL
- MIC 50% [9]: 2 µg/mL
- MIC 90% [9]: 4 µg/mL
- MIC 50% [10]: 64 µg/mL
- MIC 90% [10]: >64 µg/mL
- MIC 50% [11]: 0.5 µg/mL
- MIC 90% [11]: 1 µg/mL
- MIC 50% (VanC enterococci (22)): 1 µg/mL
- MIC 90% (VanC enterococci (22)): 2 µg/mL
- MIC 50% ([14]; MRSA (22)): 0.5 µg/mL
- MIC 90% ([14]; MRSA (22)): 0.5 µg/mL
- MIC 50% [13]: 0.12 µg/mL
- MIC 90% [13]: 0.25 µg/mL
